Laboratory results taken from patent US20240376052A1, “N-SUBSTITUTED INDOLE DERIVATIVES AS SEROTONERGIC AGENTS USEFUL FOR THE TREATMENT OF DISORDERS RELATED THERETO” (Mindset Pharma Inc., priority 2021, published 2024).
Like-named read-outs stand apart in the source and are kept apart here.

Experiments:
[1] = molecular target: human 5-HT2A receptor (Homo sapiens (Human), UniProt P28223); test: Human 5-HT2A radioligand binding assay ([3H]-ketanserin)
[2] = Liver microsomes stability, human; conditions: for Remaining Percentage (%): Human
Method: (§1) The objective of this study was to estimate in vitro metabolic stability of representative compounds of the application in pooled human and male mouse liver microsomes. The concentrations of parent compounds in reaction systems were evaluated by LC-MS/MS for estimating the stability in pooled human and male mouse liver microsomes. The in vitro intrinsic clearances of test compounds were determined as well.
(§2) A master solution in the “Incubation Plate” containing phosphate buffer, ultra-pure H2O, MgCl2 solution and liver microsomes was made according to Table 3. The mixture was pre-warmed at 37° C. water bath for 5 minutes.
(§3) 40 μL of 10 mM NADPH solution was added to each well. The final concentration of NADPH was 1 mM. The negative control samples were prepared by replacing NADPH with 40 μL of ultra-pure H2O. Samples were prepared in duplicate. Negative controls were prepared in singlet.
(§4) The reaction was started with the addition of 4 μL of 200 μM test compounds or control compounds to each master solution to get the final concentration of 2 μM. This study was performed in duplicate.
(§5) Aliquots of 50 μL were taken from the reaction solution at 0, 15, 30, 45 and 60 minutes. The reaction solutions were stopped by the addition of 4 volumes of cold methanol with IS (100 nM alprazolam, 200 nM imipramine, 200 nM labetalol and 2 μM ketoprofen). Samples were centrifuged at 3,220 g for 40 minutes. Aliquot of 90 μL of the supernatant was mixed with 90 μL of ultra-pure H2O and then was used for LC-MS/MS analysis.
(§6) LC/MS analysis was performed for all samples from this study using a Shimadzu liquid chromatograph separation system equipped with degasser DGU-20A5R; solvent delivery unit LC-30AD; system controller SIL-30AC; column oven CTO-30A; CTC Analytics HTC PAL System. Mass spectrometric analysis was performed using an Triple Quad™ 5500 instrument.
(§7) All calculations were carried out using Microsoft Excel. Peak area ratios of test compound to internal standard (listed in the below table) were determined from extracted ion chromatograms.
(§8) All calculations were carried out using Microsoft Excel. Peak areas were determined from extracted ion chromatograms. The slope value, k, was determined by linear regression of the natural logarithm of the remaining percentage of the parent drug vs. incubation time curve.
(§9) The in vitro half-life (in vitro t1/2) was determined from the slope value:
(§10) Conversion of the in vitro t1/2(min) into the in vitro intrinsic clearance (in vitro CLint, in μL/min/mg proteins) was done using the following equation (mean of duplicate determinations): […]

[3] = Liver microsomes stability, rat; conditions: for Remaining Percentage (%): Rat
Method: as §1, §2, §3, §4, §5, §6, §7, §8, §9, §10

[4] = Liver microsomes stability, mouse; conditions: for Remaining Percentage (%): Mouse
Method: as §1, §2, §3, §4, §5, §6, §7, §8, §9, §10

[5] = Liver microsomes stability, dog; conditions: for Remaining Percentage (%): Dog
[6] = [3H]-ketanserin competition, read-out: h5-HT2A IC50

## CCCCC/C=C\C/C=C\CCCCCCCC(=O)n1cc(C2CCN(C)C2)c2ccccc21 (racemic) [Compound I-12, (9Z,12Z)-1-(3-(1-Methylpyrrolidin-3-yl)-1H-indol-1-yl)octadeca-9,12-dien-1-one]
[1]; [6]
  IC50: 2000 to 5000 nM

## CCCCC/C=C\C/C=C\CCCCCCCC(=O)n1cc(C2CCN(C)C2)c2cc(OC)ccc21 (racemic) [Compound I-13, (9Z,12Z)-1-(5-Methoxy-3-(1-methylpyrrolidin-3-yl)-1H-indol-1-yl)octadeca-9,12-dien-1-one]
[1]; [6]
  IC50: 2000 to 5000 nM

## [2H]C([2H])([2H])Oc1ccc2c(c1)c(C([2H])([2H])C([2H])([2H])N(C([2H])([2H])[2H])C([2H])([2H])[2H])cn2C(=O)CCCCCCC/C=C\C/C=C\CCCCC [Compound I-4, (9Z,12Z)-1-(3-(2-(Bis(methyl-d3)amino)ethyl-1,1,2,2-d4)-5-(methoxy-d3)-1H-indol-1-yl)octadeca-9,12-dien-1-one]
[1]
  IC50: < 2000 nM

## CCCCC/C=C\C/C=C\CCCCCCCC(=O)n1cc(C[C@H]2CCCN2C)c2ccccc21 [Compound I-5, (9Z,12Z)-1-(3-(((R)-1-Methylpyrrolidin-2-yl)methyl)-1H-indol-1-yl)octadeca-9,12-dien-1-one]
[1]
  IC50: < 2000 nM
[2]; Human liver microsomes
  Predicted hepatic CL: 6.42 mL/min/kg
[2]; With NADPH, 0 min
  Remaining Percentage (%): 100.00%
[2]; With NADPH, 30 min
  Remaining Percentage (%): 86.52%
[2]; With NADPH, 60 min
  Remaining Percentage (%): 80.05%
[2]; Without NADPH, 0 min
  Remaining Percentage (%): 100.00%
[2]; Without NADPH, 30 min
  Remaining Percentage (%): 85.69%
[2]; Without NADPH, 60 min
  Remaining Percentage (%): 80.25%
[2]; human, microsomes
  CLint scaled at 2 μM: 9.3 mL/min/kg
  half-life at 2 μM: 3.11 h
  microsomal CLint at 2 μM: 7.42 µL/min/mg
[3]; Rat liver microsomes
  Predicted hepatic CL: 24.83 mL/min/kg
[3]; With NADPH, 0 min
  Remaining Percentage (%): 100.00%
[3]; With NADPH, 30 min
  Remaining Percentage (%): 69.74%
[3]; With NADPH, 60 min
  Remaining Percentage (%): 46.98%
[3]; Without NADPH, 0 min
  Remaining Percentage (%): 100.00%
[3]; Without NADPH, 30 min
  Remaining Percentage (%): 97.35%
[3]; Without NADPH, 60 min
  Remaining Percentage (%): 95.87%
[3]; rat, microsomes
  CLint scaled at 2 μM: 45.1 mL/min/kg
  half-life at 2 μM: 0.917 h
  microsomal CLint at 2 μM: 25.2 µL/min/mg
[4]; Mouse liver microsomes
  Predicted hepatic CL: 41.60 mL/min/kg
[4]; With NADPH, 0 min
  Remaining Percentage (%): 100.00%
[4]; With NADPH, 30 min
  Remaining Percentage (%): 74.79%
[4]; With NADPH, 60 min
  Remaining Percentage (%): 58.84%
[4]; Without NADPH, 0 min
  Remaining Percentage (%): 100.00%
[4]; Without NADPH, 30 min
  Remaining Percentage (%): 80.19%
[4]; Without NADPH, 60 min
  Remaining Percentage (%): 90.42%
[4]; male, mouse, microsomes
  CLint scaled at 2 μM: 77.3 mL/min/kg
  half-life at 2 μM: 1.31 h
  microsomal CLint at 2 μM: 17.7 µL/min/mg
[5]; Dog liver microsomes
  Predicted hepatic CL: 21.51 mL/min/kg
[5]; With NADPH, 0 min
  Remaining Percentage (%): 100.00%
[5]; With NADPH, 30 min
  Remaining Percentage (%): 65.44%
[5]; With NADPH, 60 min
  Remaining Percentage (%): 42.66%
[5]; Without NADPH, 0 min
  Remaining Percentage (%): 100.00%
[5]; Without NADPH, 30 min
  Remaining Percentage (%): 87.66%
[5]; Without NADPH, 60 min
  Remaining Percentage (%): 90.58%
[5]; dog, microsomes
  CLint scaled at 2 μM: 70.8 mL/min/kg
  half-life at 2 μM: 0.814 h
  microsomal CLint at 2 μM: 28.4 µL/min/mg
